{
  "source": "PubChem BioAssay AID1159561",
  "about": "(GlaxoSmithKline (GSK), 2015)",
  "note": "Calls of active or inactive are those of the source.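 How the source made its calls: active means toxic to mouse fibroblast host cells, with IC50 below 50 µM; inactive means the rest.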",
  "data": [
    {"system": "NIH-3T3 viability, ATP luminescence", "test": "murine fibroblast viability via ATP level – cell-based, murine fibroblasts, cytotoxicity control for Trypanosoma cruzi inhibitor project (AID 1159561)", "settings": "4 days", "values": [
      {"smiles": "Cn1nccc1-c1cc(OC(CN)c2ccccc2)cnc1-c1ccco1", "note": "(centres undefined)", "IC50": "20 µM"},
      {"smiles": "COc1ccccc1-c1c(C)[nH]c2nc(N)nc(C)c12", "IC50": "> 50 µM (inactive)"},
      {"smiles": "O=C1CSC(c2cccnc2)N1c1ccc(Cl)cc1Cl", "note": "(centres undefined)", "IC50": "> 50 µM (inactive)"},
      {"smiles": "CNc1cc(C)nc(C2CN(C(=O)c3n[nH]c4ccccc34)CCO2)c1", "note": "(centres undefined)", "IC50": "> 50 µM (inactive)"},
      {"smiles": "CN(Cc1cc2ccccc2s1)c1ncc2c(N)nc(N)nc2n1", "IC50": "25 µM"},
      {"smiles": "Fc1ccc(OC2CC(NCc3cccc4cn[nH]c34)C2)cc1C(F)(F)F", "note": "(centres undefined)", "IC50": "13 µM"},
      {"smiles": "O=C(Nc1cccc(F)c1)N1CCC(Oc2cccc(-c3cccnc3)c2)CC1", "IC50": "40 µM"},
      {"smiles": "COc1ccc(-c2nc3ncccc3o2)cc1NC(=O)c1cccs1", "IC50": "> 50 µM (inactive)"},
      {"smiles": "COc1ccc(CN2CCCCC2c2nc(-c3cccnc3)no2)cc1", "note": "(centres undefined)", "IC50": "> 50 µM (inactive)"},
      {"smiles": "Cc1nn(C)c(Cl)c1CN(Cc1cccnc1)Cc1ccsc1", "IC50": "20 µM"},
      {"smiles": "CC1CN(S(=O)(=O)c2ccc(NC(=O)c3cc(C4CC4)nc4c3cnn4C(C)C)cc2)CC(C)O1", "note": "(centres undefined)", "IC50": "> 50 µM (inactive)"},
      {"smiles": "COc1cc(C(C)C)c(S(C)(=O)=O)cc1C(=O)N1CCN(c2ccccc2Cl)CC1", "IC50": "> 50 µM (inactive)"},
      {"smiles": "O=C1CCCCCC1(Cc1cnc[nH]1)c1ccc(Cl)cc1Cl", "note": "(centres undefined)", "IC50": "20 µM"},
      {"smiles": "O=c1[nH]cnc2c([C@@H]3O[C@H](CO)[C@@H](O)[C@H]3O)[nH]nc12", "IC50": "> 50 µM (inactive)"},
      {"smiles": "Cc1c(C#N)c([N+](=O)[O-])nn1Cc1cccc(Cl)c1Cl", "IC50": "40 µM"},
      {"smiles": "Cc1cc(C)c(C#N)c(SCC(=O)c2ccc3c(c2)OCO3)n1", "IC50": "> 50 µM (inactive)"},
      {"smiles": "O=C(CN(c1cccc(C(F)(F)F)c1)S(=O)(=O)c1ccc(Cl)cc1)NCc1ccc(F)c(F)c1", "IC50": "32 µM"},
      {"smiles": "c1ccc2c(CCOc3nccnc3-c3ccncc3)c[nH]c2c1", "IC50": "20 µM"},
      {"smiles": "Cc1nnnn1-c1cccc(C(=O)N2CCC[C@@]3(C)c4ncncc4CCC23)c1", "note": "(some centres undefined)", "IC50": "> 50 µM (inactive)"},
      {"smiles": "C=CCn1nc([N+](=O)[O-])nc1Oc1ccc(Cl)cc1Cl", "IC50": "50 µM"},
      {"smiles": "CC1=C(C(=O)Nc2ccc(Cl)cc2)C(c2ccncc2)n2ncc(C(=O)Nc3ccccc3)c2N1", "note": "(centres undefined)", "IC50": "32 µM"},
      {"smiles": "O=c1oc2ccccc2n1C1CCN(Cc2ccccc2-c2cccnc2)CC1", "IC50": "16 µM"},
      {"smiles": "O=c1ccc2ccc(F)c3c2n1C[C@H]3CN1CCC(NCc2cc3ccccc3o2)CC1", "IC50": "20 µM"},
      {"smiles": "CC(C)N(C(=O)CN1C(=O)C(N)C(=O)N(c2ccccc2)c2ccccc21)c1ccccc1", "note": "(centres undefined)", "IC50": "20 µM"},
      {"smiles": "COc1ccc(C)cc1-c1csc(NC(=O)C(C)n2ccnc2)n1", "note": "(centres undefined)", "IC50": "50 µM"},
      {"smiles": "CNc1cncc(C2CCCN2C(=O)Cc2ccc3ccccc3c2)n1", "note": "(centres undefined)", "IC50": "> 50 µM (inactive)"},
      {"smiles": "N#Cc1cc([N+](=O)[O-])ccc1NC1CCCCCC1", "IC50": "> 50 µM (inactive)"},
      {"smiles": "CS(=O)(=O)c1ccc(CC(=O)Nc2nc(-c3ccc(Cl)s3)cs2)cc1", "IC50": "> 50 µM (inactive)"},
      {"smiles": "O=S(=O)(NCC(c1cccnc1)N1CCN(c2ccc(F)cc2)CC1)c1cccs1", "note": "(centres undefined)", "IC50": "> 50 µM (inactive)"},
      {"smiles": "O=C(CSc1ccc(-c2ccccn2)nn1)Nc1ccc(Cl)cc1", "IC50": "32 µM"},
      {"smiles": "O=C(Nc1ccc(C(=O)N2CCCC2c2ccc3c(c2)OCCCO3)cc1)c1ccco1", "note": "(centres undefined)", "IC50": "> 50 µM (inactive)"},
      {"smiles": "O=C1CN(C2CCCc3c(OCc4ccncc4)cccc32)C(=O)N1C1CCCCC1", "note": "(centres undefined)", "IC50": "> 50 µM (inactive)"},
      {"smiles": "N#Cc1cccc(CN2CCC(c3nc(-c4ccc(C(F)(F)F)nc4)no3)CC2)c1", "IC50": "> 50 µM (inactive)"},
      {"smiles": "N#Cc1cccc(CN2CCC(N(Cc3cccnc3)C(=O)c3cc(F)c(F)cc3F)CC2)c1", "IC50": "20 µM"},
      {"smiles": "CC1(Oc2cncc(Cl)c2)CCN(Cc2cc3ccccc3[nH]2)C1", "note": "(centres undefined)", "IC50": "10 µM"},
      {"smiles": "O=C(NCc1ccncc1)c1ccccc1N1CCCN(C(=O)Cc2ccc(F)c(F)c2)CC1", "IC50": "16 µM"},
      {"smiles": "CC(=O)Nc1nc(-c2cc(C)ccc2C)c(C)s1", "IC50": "25 µM"},
      {"smiles": "CC1=NN(C(=O)CCn2cnc([N+](=O)[O-])n2)C(O)(C(F)(F)F)C1", "note": "(centres undefined)", "IC50": "> 50 µM (inactive)"},
      {"smiles": "CS(=O)(=O)c1cccc(CNC(=O)c2cncc(N3CCN(c4ccc(F)cc4)CC3)c2)c1", "IC50": "25 µM"},
      {"smiles": "Cc1cc(Br)cc(C(=O)c2c(C(C)C)c(=O)[nH]c(=O)n2Cc2ccnc(N)c2)c1", "IC50": "16 µM"},
      {"smiles": "CCCC(=O)N(Cc1ccccn1)c1nc2ccccc2s1", "IC50": "> 50 µM (inactive)"},
      {"smiles": "Cc1ccc(C)c(-n2nnnc2Sc2nc([N+](=O)[O-])nn2C)c1", "IC50": "> 50 µM (inactive)"},
      {"smiles": "COc1ccc2nc(N(Cc3cccnc3)C(=O)C3CCC3)sc2c1", "IC50": "50 µM"},
      {"smiles": "COc1ccc(S(=O)(=O)Nc2ccccc2OC)cc1NC(=O)CCCc1c[nH]c2ccccc12", "IC50": "> 50 µM (inactive)"},
      {"smiles": "O=C(c1cc2cc(Cl)ccc2[nH]1)N1CCCCC1c1cccnc1", "note": "(centres undefined)", "IC50": "40 µM"},
      {"smiles": "COc1ccc(C2CC(c3ccccc3Cl)=NN2C(=O)CNC(=O)C2CCC2)cc1", "note": "(centres undefined)", "IC50": "32 µM"},
      {"smiles": "CCC(=O)Nc1ccc(-c2nc3ccc(Cl)cc3[nH]2)cc1", "IC50": "> 50 µM (inactive)"},
      {"smiles": "Cc1cc(N(C)C)nc(Nc2ccccc2C)n1", "IC50": "40 µM"},
      {"smiles": "COc1ccc2ncc(F)c(NC(=O)C3(O)CCC(NCc4ccc5c(c4)OCCO5)CC3)c2n1", "note": "(centres undefined)", "IC50": "7.9 µM"},
      {"smiles": "CC1(C)CCC(=Cc2ccc(Cl)cc2)CC1(O)Cn1ccnc1", "note": "(centres undefined)", "IC50": "16 µM"},
      {"smiles": "N#Cc1ccc(S(=O)(=O)N2CCN(Cc3cccc(-c4ccncc4)c3)CC2)cc1", "IC50": "13 µM"},
      {"smiles": "O=C(CSc1ccc(F)cc1)N[C@@H](Cc1cnc[nH]1)C(=O)NCCc1ccccc1", "IC50": "13 µM"},
      {"smiles": "COc1ccc(S(=O)(=O)NCc2ccc(-c3ccc(CN(C)CCO)cc3)cc2)cc1", "IC50": "16 µM"},
      {"smiles": "CCCN(Cc1ccc(OC)c(OC)c1)Cc1cc(=O)c2c(C)cc(C)cc2[nH]1", "IC50": "32 µM"},
      {"smiles": "Cn1cncc1CN1CCC2(CC1)COC(Cc1ccccc1)C2", "note": "(centres undefined)", "IC50": "25 µM"},
      {"smiles": "Cc1ccc(S(=O)(=O)Cn2nnnc2C(c2cccnc2)N2CCN(c3ccccc3)CC2)cc1", "note": "(centres undefined)", "IC50": "32 µM"},
      {"smiles": "CN(C)c1ccc(-c2cc3nccnc3c(OC[C@H]3CCCNC3)n2)cn1", "IC50": "16 µM"},
      {"smiles": "COc1cccc(C(=O)[C@H]2C[C@@H]2CN(Cc2cccnc2)Cc2cccnc2)c1", "IC50": "20 µM"},
      {"smiles": "CN(C(=O)Nc1ccc2c(c1)CCN(C1CCC1)CC2)c1ccc(C#N)cc1", "IC50": "40 µM"},
      {"smiles": "COc1ccccc1C=CCN1C[C@H]2CCC[C@@H](C1)C2(O)c1cccnc1", "note": "(some centres undefined)", "IC50": "32 µM"},
      {"smiles": "CN(C)CCN(C)Cc1ccc(F)cc1NS(=O)(=O)c1ccc(Cl)c(Cl)c1", "IC50": "16 µM"},
      {"smiles": "O=C(NCCc1cccnc1)c1ccc(-c2ccccc2F)o1", "IC50": "40 µM"},
      {"smiles": "Cc1nn(C2CCS(=O)(=O)C2)c(C)c1CN(C)C(=O)C=Cc1sc2ccccc2c1Cl", "note": "(centres undefined)", "IC50": "> 50 µM (inactive)"},
      {"smiles": "O=c1cc(NCCCNC2CCOc3c(I)cc(Cl)cc32)[nH]c2ccccc12", "note": "(centres undefined)", "IC50": "25 µM"},
      {"smiles": "CN(Cc1ccccc1)Cc1nnnn1C1CCN(Cc2ccc(-n3ccnc3)cc2)CC1", "IC50": "4 µM"},
      {"smiles": "O=C(Nc1cccc(Cl)c1)N1CCCCC1c1cccnc1", "note": "(centres undefined)", "IC50": "32 µM"},
      {"smiles": "O=C(Cn1cnc([N+](=O)[O-])n1)Nc1ccc(Cl)cc1C(=O)c1ccccc1", "IC50": "> 50 µM (inactive)"},
      {"smiles": "COc1cccc(-c2cc(C(F)(F)F)nc(-n3ccc([N+](=O)[O-])n3)n2)c1", "IC50": "> 50 µM (inactive)"},
      {"smiles": "Cc1sc(C)c(C(F)(F)F)c1CNCCCNc1cc(=O)c2ccccc2[nH]1", "IC50": "10 µM"},
      {"smiles": "Fc1ccccc1N1C[C@H]2CCN(c3cccnc3)C[C@H]2C1", "IC50": "13 µM"},
      {"smiles": "Cc1nc(N2CCC(C(=O)N3CCC(O)(c4cccnc4)CC3)CC2)nc2ccc(C(C)C)cc12", "IC50": "25 µM"},
      {"smiles": "Cc1nc2nc(C)c(Cc3ccc(C(C)C)cc3)c(=O)n2[nH]1", "IC50": "> 50 µM (inactive)"},
      {"smiles": "CCN(Cc1ccncc1)Cc1ccc(NC(=O)c2cc(-c3ccc(F)cc3)n[nH]2)cc1", "IC50": "10 µM"},
      {"smiles": "Cc1ccc(CNC2CCN(C[C@@H]3Cn4c(=O)ccc5ccc(=O)n3c54)CC2)cc1F", "IC50": "16 µM"}
    ]}
  ]
}
